Calls of active or inactive are those of the source. No rule for the calls is given here.

Broadly, the IC50 is the concentration at which inhibition is half-maximal.

The experiment has as its system HEK-293T NF-kB luciferase reporter counterscreen, luminescence. Kind of experiment: NF-kB reporter inhibition in HEK-293T, dose response, counter-screen for T-cell antigen receptor NF-kB inhibitors, HEK-293T cells, luminescence (AID 489041).
In the case of `Cc1ccc2cccc(NS(=O)(=O)c3ccccc3)c2n1`, the IC50 was > 80 µM (inactive). The figure for `O=S(=O)(c1ccc2c(c1)OCCO2)N1CCN(c2ncnc3sccc23)CC1` is 2.44 µM. With `Brc1ccc2c(c1)C(C1=NCCN1)c1ccccc1CS2` (configuration not stated), the IC50 was > 80 µM (inactive). With `CCS(=O)(=O)c1ncc(Cl)c(C(=O)Nc2ccc(S(=O)(=O)N(C)c3ccccc3)cc2)n1`, the IC50 is 20.2 µM (inactive). For the compound `CCOc1ccc2c(c1)sc(N)[n+]2Cc1cc(C)cc2cccnc12`, the half-inhibitory concentration (IC50) is 7.7 µM.

With `O=C(NCCOc1ccccc1)c1cc([N+](=O)[O-])ccc1N1CCOCC1`, the IC50 was 72.2 µM (inactive).

On to `Cc1cc(C(C)(C)C)cc(C)c1C[n+]1ccc2ccccc2c1`, for which the IC50 is 4.34 µM.

With `CCCN1C=CC(=C2C(=O)c3ccccc3C2=O)C=C1`, the IC50 is 1.1 µM. The figure for `CCCCc1ccc(NC(=O)c2ccc(N(C)S(C)(=O)=O)cc2)cc1` is > 80 µM (inactive). For the compound `C(=N\Nc1nc2ccccc2s1)/c1ccccn1`, the IC50 is 1.45 µM. Take `O=S(=O)(Nc1cccc2ncccc12)c1cccs1`: the IC50 is > 80 µM (inactive). Consider `Cc1ccc(C(=O)O/N=C(\N)c2ccccn2)c(Cl)c1`, for which the IC50 is 2.61 µM. On to `CCOC(=O)COc1cccc2c(=O)n(CC(=O)NCc3ccc(F)cc3)ccc12`, for which the IC50 was < 0.16 µM. For the compound `CCOC(=O)c1ccc2nc(Nc3nc4ccc(F)cc4s3)sc2c1`, the IC50 was 1.14 µM. Consider `C[C@@H]1C=CC(=O)O[C@@H]1c1ccc(Cl)cc1`, for which the IC50 was 34 µM (inactive). In the case of `COc1cccc(N2CCN(C(=O)c3ccc(CS(=O)c4ccccc4Cl)o3)CC2)c1` (configuration not stated), the IC50 was 6.1 µM. With `COC(=O)c1cn(NC(=O)c2cc([N+](=O)[O-])ccc2F)c(=O)c2ccccc12`, the IC50 is 4.34 µM. The figure for `COc1cc(Nc2ccc(C)cc2)c([N+](=O)[O-])nc1[N+](=O)[O-]` is 19.9 µM; for `Cn1ncc2c(N3CCN(c4ccc(Cl)c(Cl)c4)CC3)ncnc21` it is 1.29 µM; for `COc1ccc(-n2cc(-c3ccc(C)cc3)[n+]3c2SCC3)cc1` it is 5.82 µM.

Turning to `COc1ccc([C@H]2CC(=O)C=C(c3c(OC)cccc3OC)C2)cc1`, the IC50 is 10.2 µM.

Consider `CCOC(=O)Nc1nc(-c2ccccc2)c(C(=O)c2ccccc2)s1`, for which the IC50 was > 80 µM (inactive).

As to `CCOc1ccc(Br)cc1C1=CC(=O)C[C@H](c2ccc(OC)cc2)C1`, the IC50 is 13.7 µM. Turning to `COc1ccc(-c2c(C#N)c(N)nc3c2CCc2ccccc2-3)cc1OC`, the concentration for half-maximal inhibition (IC50) is 8.28 µM. Then `CCOc1ccc(N/C(N)=N/c2nc(CSc3nnc(C)s3)cc(=O)[nH]2)cc1`, with 29.9 µM (inactive). The figure for `CCN1C=CC(=C2C(=O)c3ccccc3C2=O)C=C1` is 0.92 µM; for `CCOCCOC(=O)c1[nH]c2c(c1C)C(=O)CC(c1cccs1)C2` (configuration not stated) it is 4.6 µM. For `O=C(c1ccc(CS(=O)c2ccccc2Cl)o1)N1CCN(c2ccccn2)CC1` (configuration not stated), the IC50 was 18.8 µM.

For the compound `O=C(c1ccccc1)c1nn(-c2ccc(Cl)cc2)c(=O)cc1C(F)(F)F`, the IC50 is 5 µM. As to `Cc1ccc(NC(=O)c2cc3ccccc3oc2=O)cc1S(=O)(=O)N(C)C`, the IC50 was < 0.16 µM. Turning to `Cc1ccc(-c2cc(C(F)F)n3ncc(C(=O)N4CCc5ccccc54)c3n2)cc1`, the IC50 was 9.99 µM. `CCOC(=O)c1[nH]c(C=O)c(C(=O)OCC)c1C`: the IC50 is 15.5 µM. With `CCc1ccc2nc(SCC(=O)Nc3ccccc3N3CCOCC3)c(C#N)cc2c1`, the IC50 is > 80 µM (inactive). For the compound `CCCOc1ccc(/C=N/Nc2cc(N3CCOCC3)ncn2)c(O)c1`, the IC50 is 0.38 µM. On to `CC(C)Oc1ccccc1C1CC(=O)Nc2cc3c(cc21)OCO3` (configuration not stated), for which the half-maximal inhibitory concentration (IC50) is 3.01 µM. As for `Cc1cccc(NS(=O)(=O)c2ccc(-c3cnc(C4CC4)o3)cc2)c1`, the IC50 is 3.27 µM.

On to `O=C(c1ccc(Cl)cc1)c1cc([N+](=O)[O-])ccc1N1CCOCC1`, for which the IC50 is 11.9 µM. Take `C[C@]12CCC3C(CCC4=CC(O)CC[C@@]43/C=N/O)C1(O)CCC2C1=CC(=O)OC1` (some centres not stated): the IC50 is 0.33 µM. For `CC(C)n1c(CN(C)Cc2ccccc2)nc2c1c(=O)n(C)c(=O)n2C`, the IC50 is 2.88 µM. Then `Cc1ccc(C)c(CSc2nc3[nH]ncc3c(=O)[nH]2)c1`, with 4.88 µM. For the compound `CCOC(=O)/C=C/S(=O)(=O)c1ccc(NC(C)=O)cc1`, the IC50 is 20.1 µM (inactive). As for `CCOc1ccccc1C(=O)Nc1ccc2nc(N3CCN(c4ncccn4)CC3)cc(C)c2c1`, the IC50 was 15.2 µM. Regarding `Cc1cc(C)c2nc(C)cc(N/N=C/c3ccc(O)cc3)c2c1`, the IC50 was 12.9 µM. Consider `Cc1ccc(Nc2nc(-c3c(C)nc4ccccn34)cs2)cc1`, for which the concentration for half-maximal inhibition (IC50) is 0.59 µM. As to `O=C(Nc1ccncc1)c1ccc(Cl)c(S(=O)(=O)N2CCc3ccccc32)c1`, the IC50 is 1.49 µM. Take `Cc1ccc(N2C(=O)c3cccc4c(N)ccc(c34)C2=O)c2cccnc12`: the IC50 was < 0.16 µM. Then `CCc1ccc(S(=O)(=O)/N=C2\C=C(Nc3ccc(O)cc3)C(=O)c3ccccc32)cc1`, with 1.1 µM. Then `Cc1noc(C)c1COc1ccc(CC(=O)NCc2ccccc2)cc1`, with 20.5 µM (inactive); and `O=S1(=O)Nc2c(ccc3cccnc23)-c2ccccc21`, with 0.28 µM. Turning to `COc1ccc2nc(C)cc(N/N=C/c3ccc(F)cc3)c2c1`, the IC50 is 22.4 µM (inactive). As for `COc1ccc(CS(=O)(=O)/C(Cl)=C(/Cl)C(=O)Nc2ccc(OC)nc2)cc1`, the IC50 is 3.46 µM. For the compound `CC1C/C(=C/c2ccncc2)C(=O)/C(=C/c2ccncc2)C1` (configuration not stated), the IC50 was 5.7 µM. As for `Cn1nc([N+](=O)[O-])nc1Sc1nnc(-c2ccccc2)o1`, the IC50 is 37.5 µM (inactive). Regarding `Cc1sc2ncnc(NC3CCN(Cc4ccccc4)CC3)c2c1C`, the IC50 is 2.41 µM. The figure for `CC(=O)O[C@H]1C(=O)[C@@]2(C)C([C@H](OC(=O)c3ccccc3)[C@]3(O)C[C@H](OC(=O)[C@H](O)[C@@H](NC(=O)Cc4ccccc4)c4ccccc4)C(C)=C1C3(C)C)[C@]1(OC(C)=O)CO[C@@H]1C[C@@H]2O` (some centres not stated) is 45.6 µM (inactive). Then `COC(=O)c1ccccc1NC1=C/C(=N\S(=O)(=O)c2cccs2)c2ccccc2C1=O`, with 1.04 µM. Turning to `CCOc1ccc2c(c1)OC(c1ccc(C)cc1)(C(F)(F)F)NC2=O` (configuration not stated), the IC50 was 5.57 µM. For the compound `Nc1nc2n[nH]nc2c(=O)[nH]1`, the IC50 is > 80 µM (inactive). Then `Cc1c(C(=O)OC2CCCC2)[nH]c2c1C(=O)CC(c1ccco1)C2` (configuration not stated), with 0.45 µM; and `Cc1cccc(N2CCN(C(=O)c3ccc(S(=O)(=O)N(C)c4ccccc4)cc3)CC2)c1C`, with 10.5 µM; and `Oc1ccc2ccccc2c1N=Nc1ccccn1`, with > 80 µM (inactive). `COc1ccc(C(=O)N2CCN(c3ccc([N+](=O)[O-])c(NCCc4ccc(OC)c(OC)c4)c3)CC2)cc1`: the half-inhibitory concentration (IC50) was 0.31 µM. For the compound `O=[N+]([O-])c1ccc(-c2nc(C(Cl)Cl)c3ccccc3n2)cc1`, the IC50 is 54.5 µM (inactive). Turning to `COc1ccc(/C=C/C(=O)c2cc(F)ccc2OC(=O)c2ccccc2)cc1OC`, the IC50 is < 0.16 µM. As to `COc1cc2c(c(OC)c1OC)-c1ccc(OC)c(=O)cc1[C@@H](N(C)CC#CCO)CC2`, the IC50 is 0.56 µM.

On to `COc1ccc(C(NC(=O)C(C)C)c2ccc3cccnc3c2O)cc1` (configuration not stated), for which the IC50 is > 80 µM (inactive). The figure for `COc1ccc(OC)c(CCNC(=O)Cn2nc(C)c3c(C)n(-c4ccc(C)cc4)nc3c2=O)c1` is 1.28 µM; for `COc1cccc(CN(C)C(=O)c2cc(COc3ccc4ncccc4c3)on2)c1` it is 1.9 µM; for `Cc1ccc(C(=O)c2cc([N+](=O)[O-])ccc2N2CCOCC2)c(C)c1` it is 4.92 µM. Then `COc1cc(C(=O)N/N=C/c2cc([N+](=O)[O-])cs2)cc(OC)c1OC`, with 1.91 µM; and `Cc1ccccc1NS(=O)(=O)c1ccc(N2CCCC2=O)cc1`, with 42.2 µM (inactive); and `Cc1ccc(S(=O)(=O)/N=C2\C=C(Nc3ccc(O)cc3)C(=O)c3ccccc32)cc1`, with 0.78 µM.

On to `COc1cc(Cn2c(-c3nonc3N)nc3ccccc32)ccc1C`, for which the half-maximal inhibitory concentration (IC50) was 1.08 µM.

As to `CCCc1cc(C(=O)N/N=C/c2ccc(CC)s2)c2ccccc2n1`, the IC50 was 2.47 µM. The figure for `CC(=O)c1sc2c(c1OC(=O)c1ccc(Cl)cc1Cl)c(=O)n(-c1ccccc1)c(=S)n2-c1ccccc1` is 28.7 µM (inactive); for `O=C(c1cn(Cc2ccccc2)nc1-c1ccccc1)N1CCN(c2ccccn2)CC1` it is > 80 µM (inactive). For the compound `O=C1/C(=C/c2ccc(N3CCOCC3)o2)SC(=Nc2ccccc2)N1CCc1c[nH]c2ccccc12`, the IC50 is 13.8 µM. In the case of `COc1ccc(N/N=C/c2c(C(=O)O)ccc3ccccc23)cc1`, the IC50 is 15.8 µM. In the case of `CCOc1ccccc1N1CC(O)=C(c2nc3ccccc3s2)C1=N`, the IC50 was 8.73 µM. On to `COc1cc(-c2noc(C)c2/C=C/c2ccc(OC(C)=O)cc2)cc(OC)c1OC`, for which the IC50 was 2.78 µM. For `CCOc1ccc(S(=O)(=O)N2c3ccccc3CC2C)cc1` (configuration not stated), the IC50 is 5.98 µM. Regarding `CN(C)c1ccc(-[n+]2c(-c3ccccc3)cc(-c3ccccc3)cc2-c2ccccc2)cc1`, the half-inhibitory concentration (IC50) is 1.48 µM.

For `COc1ccc(/C=N\NC(=O)c2ccccc2F)cc1COc1ccc(F)cc1F`, the IC50 is 8.43 µM. Take `CCOc1ccccc1NS(=O)(=O)c1ccc(-c2cnc(C3CC3)o2)cc1`: the IC50 is 1.79 µM. Consider `CCOc1ccccc1C(=O)N1CCN(c2cccc(Cl)c2)CC1`, for which the IC50 is 2.28 µM. `CC[C@@]1(O)C(=O)OCc2c1cc1n(c2=O)Cc2cc3c(CN(C)C)c(O)ccc3nc2-1`: the IC50 was 29.3 µM (inactive). The figure for `CC(C)(C)OC(=O)NCCCCCc1cn(CC(=O)NCCCCCCCCCCC(=O)N2CCN(C(=O)OC(C)(C)C)CC2)nn1` is 0.22 µM; for `Cc1cc(/C=C2\Sc3ccccc3N2C)cc(C)[n+]1CC1CCCO1` (configuration not stated) it is 3.74 µM. For the compound `O=C1C=CCC(/C=C/c2ccccc2)O1` (configuration not stated), the IC50 is 22.2 µM (inactive). Consider `O=S(=O)(Nc1ccc(F)cc1Cl)c1ccc(-c2cnc(C3CC3)o2)cc1`, for which the IC50 is 1.78 µM. Regarding `COc1ccc(S(=O)(=O)N2N=C(C)Oc3ccccc3C2=O)cc1`, the IC50 is 29.9 µM (inactive). `COc1cccc(-c2cc(C(=O)Nc3cc(C)n(Cc4ccc(Cl)cc4)n3)no2)c1`: the IC50 was 4.24 µM.

The values above are taken from PubChem BioAssay AID489041 (Sanford-Burnham Center for Chemical Genomics, 2010).
